In US11591300B2, “Oxazole containing compounds as activators of IDO1 and AhR” (The Brigham and Women's Hospital, Inc., priority 2017, dated 2023):

Legend:
[1] = system: MODE-K cells; assay: CD1d-restricted IL-10 production in MODE-K:NKT cell hybridoma co-culture; type: cell-based, mouse; details: for effect of the supplement on IEC responses to oxazolone (CD1d-restricted IL-10 production): tryptophan-deficient media, oxazolone stimulation
[2] = system: MODE-K cells; assay: Relative transcript abundance of target genes in MODE-K cells conditioned with compounds; details: for Ido1 transcripts / Mttp transcripts: MODE-K cells conditioned with compound, normalized to β-actin
Source text: 4-ethoxymethylene-2-phenyl-2-oxazol-5-one, (referred to as oxazolone, FIG. 1A) has been widely utilized in models of contact hypersensitivity and when applied to the mucosa has been proposed to cause colitis through its properties as a hapten (Gorbachev and Fairchild 2001). However to date there is limited evidence for hapten-specific antibody production or responses following topical oxazolone sensitization or hapten modified autologous proteins or luminal antigens identified at mucosal sites (Singleton et al. 2016, Yanaba et al. 2008, Wirtz et al. 2007). […] It was then determined whether oxazolone could affect the expression of these transcripts in the intestinal epithelium in a cell intrinsic manner by directly stimulating an immortalized intestinal epithelial cell line (IEC) derived from mouse small intestine, MODE-K, with oxazolone.
To test this, a systematic in vitro system was devised to assess transcriptional and CD1d-restricted responses in IECs in response to stimulation with dietary OxC structures, including 2,4,5-trimethyl-2,5-dihydro-1,3-oxazole (referred to as TMO, FIG. 1A) found in coffee, peanuts, meats and utilized as a food additive, which lacks the 2-phenyl ring, 5-ketone, and 4-ethoxymethylene present in oxazolone (Vitzthum et al. 1975, Stoffesima et al. 1968, Lee et al. 1981, Chang et al. 1968, Ho and Hartman 1968).

[3] = molecular target: recombinant IDO1 (Homo sapiens, UniProt P14902); assay: Recombinant IDO1 conversion of L-tryptophan to formyl-kyneurenine; type: biochemical; details: compared to control (TMC) or vehicle
Chain of recombinant IDO1 (P14902 whole entry, species assumed): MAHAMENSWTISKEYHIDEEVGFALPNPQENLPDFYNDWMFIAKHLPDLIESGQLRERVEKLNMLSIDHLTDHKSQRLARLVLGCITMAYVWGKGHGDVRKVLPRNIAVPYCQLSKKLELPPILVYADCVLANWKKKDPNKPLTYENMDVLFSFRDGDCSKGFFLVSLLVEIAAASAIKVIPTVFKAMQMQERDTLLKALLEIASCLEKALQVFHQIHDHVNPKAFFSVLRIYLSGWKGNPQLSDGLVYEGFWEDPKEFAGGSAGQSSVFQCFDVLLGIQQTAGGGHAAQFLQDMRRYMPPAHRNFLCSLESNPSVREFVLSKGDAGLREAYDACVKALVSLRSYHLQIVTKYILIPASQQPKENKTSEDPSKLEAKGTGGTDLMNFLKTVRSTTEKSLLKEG

[4] = system: primary hepatocytes; assay: IL-10 production from primary hepatocytes co-cultured with 24.7 iNKT hybridoma; details: response to iNKT cells in the presence of α-GC
[5] = Wambaugh et al. 2014; cited from earlier work
[6] = system: C57Bl/6 mice; assay: Intra-rectal administration, colonic inflammation in vivo; set-up: species or system mouse
Experimental: It was tested whether a dietary sourced minimal oxazole structure was sufficient to induce intestinal inflammation in vivo. […] To confirm this, the ability of oxazolone skin pre-sensitization to affect the responses to rectal challenge with TMO and vice-versa (FIG. 9D).
Next, it was tested whether B17 microcin derivatives could induce intestinal inflammation in vivo. Therefore, adequate quantities of a minimal B17 derivative (termed frag-oz, FIG. 2D) were synthesized to perform in vivo experiments and challenged animals via intra-rectal administration. […] These studies identify an oxazole containing microbial mimic that promotes CD1d-dependent intestinal inflammation independent of its classical anti-microbial activity.
These studies reveal a novel role for epithelial derived AhR signals in promoting mucosal inflammation when exposed to OxC.

[7] = system: IECs; assay: LC-MS of deuterated L-trp (D5-Trp) metabolites in IEC lysates; type: cell-based; details: within 6 hours of exposure
Experimental: IDO1 is a rate-limiting enzyme involved in tryptophan catabolism that generates formyl-kyneurenine which can be further metabolized into a variety of AhR agonists (Higuchi and Hayaishi Arch Biochem Biophys 1967, Nguyen and Bradfield 2008, Zelante et al. 2014). […] To specifically identify these tryptophan derived products, IECs were cultured with deuterated L-trp (D5-Trp) and performed high performance liquid chromatography mass spectrometry (LC-MS) on lysates stimulated with oxazolone, TMO, frag-oz or TMC control (FIG. 5C). […] Taken together these latter studies are consistent with a model in which exposure of IECs to oxazole containing compounds leads to the activation of IDO1 and generation of tryptophan-derived metabolites that induce the AhR pathway to downregulate CD1d-restricted responses associated with the production of IL-10 (FIG. 6).

[8] = molecular target: T1, aryl hydrocarbon receptor (AhR) (Mus musculus, UniProt P30561); assay: AhR firefly luciferase reporter in IECs; type: cell-based; details: compared to vehicle or 1,2,4-trimethylcyclopentane
T1 construct: IECs were transfected with an AhR firefly luciferase reporter; endogenous in cells; host or cells: MODE-K (mouse intestinal epithelial cell line)
T1 sequence (P30561 10-848): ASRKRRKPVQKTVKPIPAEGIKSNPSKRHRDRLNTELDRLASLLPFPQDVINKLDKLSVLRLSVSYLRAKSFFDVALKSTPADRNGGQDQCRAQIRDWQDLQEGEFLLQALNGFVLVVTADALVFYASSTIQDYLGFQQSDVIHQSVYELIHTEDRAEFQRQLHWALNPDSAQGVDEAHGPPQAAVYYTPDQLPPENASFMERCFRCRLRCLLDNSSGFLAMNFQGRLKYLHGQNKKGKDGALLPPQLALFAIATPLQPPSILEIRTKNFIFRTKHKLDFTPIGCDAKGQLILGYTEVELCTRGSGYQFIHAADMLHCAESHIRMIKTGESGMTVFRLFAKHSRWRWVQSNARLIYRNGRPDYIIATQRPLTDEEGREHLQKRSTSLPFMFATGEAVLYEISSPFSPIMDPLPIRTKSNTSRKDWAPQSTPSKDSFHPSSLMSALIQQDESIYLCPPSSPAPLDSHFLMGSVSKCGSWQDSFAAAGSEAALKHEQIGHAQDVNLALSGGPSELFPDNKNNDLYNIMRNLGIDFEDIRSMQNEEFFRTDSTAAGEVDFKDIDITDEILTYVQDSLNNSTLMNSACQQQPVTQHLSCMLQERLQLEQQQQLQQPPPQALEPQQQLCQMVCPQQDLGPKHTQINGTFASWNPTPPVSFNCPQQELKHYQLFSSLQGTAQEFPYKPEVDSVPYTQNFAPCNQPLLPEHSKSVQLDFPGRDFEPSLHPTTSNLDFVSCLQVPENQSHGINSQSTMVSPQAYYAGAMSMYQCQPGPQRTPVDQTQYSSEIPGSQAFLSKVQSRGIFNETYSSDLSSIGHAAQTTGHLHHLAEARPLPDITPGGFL

[9] = system: MODE-K cells; assay: Surface CD1d loaded with α-GC (L363 antibody staining) in MODE-K cells; type: cell-based, mouse
Source text: In light of the decreased MTP expression observed in oxazolone treated IECs (FIG. 1B) and given that MTP loss alters the ability of CD1d to acquire exogenous antigens, such as α-GC, and CD1d elicited IL-10 responses by epithelial cells (Dougan et al. 2005, Dougan et al. 2007, Zeissig et al 2017, Sagiv et al. 2007, Brozovic et al. 2004, Olszak et al. 2014), it was investigated whether CD1d expression and lipid loading on oxazolone conditioned IECs.

[10] = molecular target: T2, AhR (Homo sapiens, UniProt P35869); details: Wambaugh et al. 2014, Dierickx 2004; cited from earlier work
T2 sequence (P35869 11-848): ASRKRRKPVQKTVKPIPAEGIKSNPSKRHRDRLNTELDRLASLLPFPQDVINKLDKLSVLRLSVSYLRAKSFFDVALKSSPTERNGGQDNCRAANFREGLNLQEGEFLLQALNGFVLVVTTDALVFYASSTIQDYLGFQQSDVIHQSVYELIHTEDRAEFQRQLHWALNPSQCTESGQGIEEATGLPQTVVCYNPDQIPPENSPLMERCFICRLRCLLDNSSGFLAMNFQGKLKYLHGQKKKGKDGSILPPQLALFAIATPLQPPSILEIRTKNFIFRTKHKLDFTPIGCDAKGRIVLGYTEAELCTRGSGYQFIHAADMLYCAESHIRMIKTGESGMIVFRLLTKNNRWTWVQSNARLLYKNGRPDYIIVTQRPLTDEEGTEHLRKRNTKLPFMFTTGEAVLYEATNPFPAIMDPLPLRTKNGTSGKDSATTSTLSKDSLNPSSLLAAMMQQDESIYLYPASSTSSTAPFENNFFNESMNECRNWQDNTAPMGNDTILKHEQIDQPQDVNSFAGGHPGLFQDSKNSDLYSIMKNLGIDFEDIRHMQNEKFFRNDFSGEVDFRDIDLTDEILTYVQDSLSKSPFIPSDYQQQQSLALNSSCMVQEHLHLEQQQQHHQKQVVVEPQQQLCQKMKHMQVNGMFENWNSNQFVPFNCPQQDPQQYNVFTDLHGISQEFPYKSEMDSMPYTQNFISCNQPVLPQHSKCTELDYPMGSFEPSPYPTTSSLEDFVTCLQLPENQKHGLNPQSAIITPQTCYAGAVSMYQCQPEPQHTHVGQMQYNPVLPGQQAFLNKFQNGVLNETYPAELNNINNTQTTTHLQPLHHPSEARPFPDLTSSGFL

[11] = system: IECs; assay: In vitro system to assess transcriptional and CD1d-restricted responses in IECs (FIG. 13 summary); type: cell-based
[12] = MODE-K pre-conditioned with compound, loaded with α-GC, co-culture with 24.7 iNKT hybridoma
[13] = IEC enriched colonic fractions after intra-rectal administration
[14] = intra-rectal administration, wildtype
[15] = supplement alone or in conjunction with TMC stimulation

Compound: Cn1cc(C[C@@H](N)C(=O)O)c2ccccc21 (racemic) [DL-methyl tryptophan, reference compound]
- effect of the supplement on IEC responses to oxazolone (CD1d-restricted IL-10 production) [1]: did not restore suppression

Compound: CC1=NC(C)OC1C (stereo not shown) [TMO, 2,4,5-trimethyl-2,5-dihydro-1,3-oxazole]
- Ido1 transcripts [2]: induced expression of these genes in vitro and in vivo
- Mttp transcripts [2]: suppressed
- ability of IDO1 to convert tryptophan to formyl-kyneurenine [3]: enhanced
- compound induced inhibition of IL-10 production in hepatocytes from Ahr−/− mice [4]: resistance
- compound induced inhibition of CD1d-restricted IL-10 production when AhR expression is silenced ([1]; AhR siRNA, IEC:iNKT cell co-cultures): reversed
- CD1d-restricted IL-10 production ([1]; IECs cultured in tryptophan-deficient media): no longer attenuated
- CD1d-restricted IL-10 production [1, 12]: limited
- IL-10 production ([1]; tryptophan-deficient conditions supplemented with kyneurenic acid): decreased IL-10 production
- decrease of IL-10 production when AhR was silenced ([1]; tryptophan-deficient conditions supplemented with kyneurenic acid, AhR siRNA): reduced when AhR was silenced
- CD1d-restricted IL-10 production ([1]; tryptophan-deficient media supplemented with exogenous L-tryptophan): attenuation of CD1d-restricted IL-10 production
- detection in human urine [5]: detected in human urine
- Cyp1a1 transcripts in IEC in vivo [6, 13]: induction of cyp1a1
- Mttp transcripts in IEC in vivo [6, 13]: downregulation of Mttp
- Th1 and Th2 cytokines (IL-13, IFN-γ) from colon explants [6, 14]: production of Th2 and Th1 cytokines including IL-13 and IFN-γ
- colon length [6, 14]: colon shortening
- histological pathology of the colon [6, 14]: histological pathology characterized by superficial inflammation of the gut wall, neutrophil accumulation and ulceration of the epithelial layer of the colon
- weight loss [6, 14]: increased weight loss
- clinical symptoms, pathology, inflammation in CD1d-deficient animals ([6]; intra-rectal challenge, CD1d-deficient (KO) vs WT): no evidence of clinical symptoms or pathology
- effect of skin pre-sensitization with the other compound (oxazolone or TMO) on rectal responses ([6]; topical sensitization followed by intra-rectal challenge): did not affect
- metabolite that D5-Trp was further metabolized to upon stimulation [7]: xanthurenic acid
- AhR transcriptional activity [8]: induced robust AhR transcriptional activity
- compound induced reduction of cell surface CD1d lipid antigen loading when AhR expression is silenced ([9]; AhR siRNA): reversed
- loading of α-GC on CD1d at the cell surface (L363 staining) ([9]; MODE-K cells conditioned with compound): decreased cell surface staining

Compound: O=C(O)c1cc(=O)c2ccccc2[nH]1 [kyneurenic acid, reference compound]
- CD1d-restricted IL-10 production [1, 15]: had no effect

Compound: COC(=O)c1csc(C(=O)c2c[nH]c3ccccc23)n1 [ITE, 2-(H-Indol-3-carbonyl)-4-thiazolecarboxylic acid methyl ester, reference compound]
- Mttp transcripts [2]: did not modulate
- CD1d-restricted IL-10 production [1, 12]: did not modulate

Compound: CC1=NCCC1 [1-MP, 2-methyl-1-pyrroline, reference compound]
- Cyp1a1 transcripts [2]: did not elicit any transcriptional changes
- Mttp transcripts [2]: did not elicit any transcriptional changes

Compound: N[C@@H](Cc1c[nH]c2ccccc12)C(=O)O [L-Trp, L-tryptophan, reference compound]
- CD1d-restricted IL-10 production [1, 15]: had no effect
- effect of the supplement on IEC responses to oxazolone (CD1d-restricted IL-10 production) [1]: restored IEC responses to oxazolone

Compound: CC1CC(C)C(C)C1 (stereo not shown) [TMC, 1,2,4-trimethyl cyclopentane, reference compound]
- Cyp1a1 transcripts [2]: did not elicit any transcriptional changes
- Mttp transcripts [2]: did not elicit any transcriptional changes

Compound: C=CC1(C)OC(=O)N(c2cc(Cl)cc(Cl)c2)C1=O (stereo not shown) [vinclozolin]
- Cyp1a1 transcripts [2]: induced expression of these genes in vitro and in vivo
- Ido1 transcripts [2]: induced expression of these genes in vitro and in vivo
- AhR activation [10]: AhR activator
- transcriptional and CD1d-restricted epithelial responses relative to oxazolone stimulation [11]: phenocopied
